Assay results reported in PubChem BioAssay AID815 (Emory University Molecular Libraries Screening Center, 2007).
pEC50: −log10 of the molar value. Results filed as inconclusive are left out. Calls of active or inactive are those of the source.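 The calls were made as follows: active = compounds whose half-maximal effective concentration EC50 against measles virus is under 10 µM; inactive = the rest, inconclusive results apart.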

Test system: Vero cells, measles virus yield reduction, TCID50, 36 h
Test: antiviral potency against measles with cytotoxicity – cell-based, EC50 and CC50, dose response (AID 815)
Settings: for CC50: measured here: cytotoxicity, viable cells

Nc1ccc(C(=O)Nc2ccc(S(=O)(=O)N3CCCC3)cc2)c(Cl)c1
EC50: > 75 µM (inactive) | CC50: > 300 µM

O=C(Nc1ccc(S(=O)(=O)N2CCCC2)cc1)c1ccccc1C(F)(F)F
EC50: > 75 µM (inactive) | CC50: > 300 µM

O=C(Nc1ccc(S(=O)(=O)N2CCCC2)cc1)c1ccco1
EC50: > 75 µM (inactive) | CC50: > 300 µM

O=C(Nc1ccc(S(=O)(=O)N2CCCC2)cc1)c1nccn1-c1ccccc1C(F)(F)F
EC50: 65 µM (inactive) | CC50: > 300 µM

O=C(Nc1ccc(S(=O)(=O)N2CCCC2)cc1)c1cccc(C(F)(F)F)c1
EC50: > 75 µM (inactive) | CC50: > 300 µM

O=C(Nc1ccc(S(=O)(=O)N2CCCC2)cc1)c1ccc([N+](=O)[O-])cc1Cl
EC50: > 75 µM (inactive) | CC50: > 300 µM

Cn1nc(C(F)(F)F)cc1C(=O)Nc1ccc(S(=O)(=O)N2CCCCC2C(=O)O)cc1 (stereo not drawn)
EC50: > 75 µM (inactive) | CC50: > 300 µM

O=C(Nc1ccc(S(=O)(=O)N2CCCC2)cc1)c1ccc(F)cc1
EC50: > 75 µM (inactive) | CC50: > 300 µM

Cn1nc(C(F)(F)F)cc1COc1ccc(S(=O)(=O)N2CCCC2)cc1
EC50: > 75 µM (inactive) | CC50: > 300 µM

O=C(Nc1ccc(S(=O)(=O)N2CCCC2)cc1)c1cccs1
EC50: > 75 µM (inactive) | CC50: > 300 µM

Cn1nc(C(F)(F)F)cc1C(=O)Nc1ccc(S(=O)(=O)N2CCC[C@H]2C(=O)O)cc1
EC50: 23 µM (inactive) | CC50: > 300 µM

O=C(Nc1ccc(S(=O)(=O)N2CCCC2)cc1)c1ccc(C(F)(F)F)cc1[N+](=O)[O-]
EC50: > 75 µM (inactive) | CC50: > 300 µM

O=C(Nc1ccc(S(=O)(=O)N2CCCC2)cc1)c1cc(C(F)(F)F)nn1Cc1ccccc1
EC50: > 75 µM (inactive) | CC50: 37 µM

Cc1cc(C(=O)Nc2ccc(S(=O)(=O)N3CCCC3)cc2)n(C)n1
EC50: > 75 µM (inactive) | CC50: > 300 µM

Cn1nc(C(F)(F)F)cc1C(=O)Nc1ccc(S(=O)(=O)N2CCCC2)cc1O
EC50: > 75 µM (inactive) | CC50: 288 µM

Cn1nc(C(F)(F)F)cc1C(=O)Nc1ccc(S(=O)(=O)N2CCC[C@H]2C(=O)OC(=O)c2ccccc2)cc1
EC50: 14 µM (inactive) | CC50: 100 µM

Cn1nc(C(F)(F)F)cc1C(=O)Nc1ccc(S(=O)(=O)N2CCOCC2)cc1
EC50: 43 µM (inactive) | CC50: > 300 µM

Cc1nc(C(F)(F)F)ccc1C(=O)Nc1ccc(S(=O)(=O)N2CCCC2)cc1
EC50: > 75 µM (inactive) | CC50: > 300 µM

Cn1nc(C(F)(F)F)cc1C(=O)Nc1ccc(S(=O)(=O)N2CCCC2)cc1N
EC50: > 75 µM (inactive) | CC50: > 300 µM

O=C(Nc1ccc(S(=O)(=O)N2CCCC2)cc1)c1ccc(C(F)(F)F)cc1
EC50: 48 µM (inactive) | CC50: > 300 µM

O=C(Nc1ccc(S(=O)(=O)N2CCCC2)cc1)c1cc(C(F)(F)F)ccc1F
EC50: > 75 µM (inactive) | CC50: 76 µM

Cn1nc(C(F)(F)F)cc1C(=O)Nc1ccc(S(=O)(=O)N2CCCCC2)cc1
pEC50: > 5.64 | CC50: > 300 µM

Cc1cc(CNc2ccc(S(=O)(=O)N3CCCC3)cc2)n(C)n1
EC50: > 75 µM (inactive) | CC50: > 300 µM

Cn1nc(C(F)(F)F)cc1C(O)Cc1ccc(S(=O)(=O)N2CCCC2)cc1 (stereo not drawn)
EC50: 41 µM (inactive) | CC50: > 300 µM

COc1ccc(Br)c(C(=O)Nc2ccc(S(=O)(=O)N3CCCC3)cc2)c1
EC50: > 75 µM (inactive) | CC50: > 300 µM

Cn1nc(C(F)(F)F)cc1C(=O)Nc1ccc(S(=O)(=O)N2CCNCC2)cc1
EC50: 28 µM (inactive) | CC50: 126 µM

Cn1nc(C(F)(F)F)cc1C(=O)Cc1ccc(S(=O)(=O)N2CCCC2)cc1
EC50: 15.5 µM (inactive) | CC50: > 300 µM

Cn1nc(C(C)(C)C)cc1C(=O)Nc1ccc(S(=O)(=O)N2CCCC2)cc1
EC50: 25 µM (inactive) | CC50: 140 µM

O=C(Nc1ccc(S(=O)(=O)N2CCCC2)cc1)c1nc2ccccc2s1
EC50: > 75 µM (inactive) | CC50: > 300 µM
